Measured values: patent US20210069157A1, “AGENT FOR TREATMENT OF PBC” (Kowa Company, Ltd, priority 2016, published 2021)

Tests used:
[1] = tested on: patients with dyslipidemia showing a high level of TG being treated with ursodeoxycholic acid; assay: Pooled clinical trial data, subset being treated with ursodeoxycholic acid: effects on ALP and total bilirubin; type: in vivo, human
Procedure: Data of patients being treated with ursodeoxycholic acid (15 cases in total) were extracted from the data obtained in a clinical trial (8 tests with an administration period of 12 weeks or more) of Compound A, which had been performed for patients with dyslipidemia showing a high level of TG, the effects of Compound A for the ALP and the total bilirubin were investigated. Compound A was administered at a dose of 0.05 to 0.4 mg per day to Compound A group. Further, placebo was administered to a control group. Each compound was administered to Compound A group and a control group for 12 weeks, and changes in the levels of ALP before and after the administration are shown in Table 3 and FIG. 3, and changes in the levels of total bilirubin before and after the administration are shown in Table 4 and FIG. 4. Note that comparisons between the groups were investigated by using covariance analysis with baseline levels used as covariates.

[2] = tested on: patients with dyslipidemia showing a high level of triglyceride (TG); assay: Pooled clinical trial data (8 tests, 12 weeks or more): effects on ALP and total bilirubin; type: in vivo, human; set-up: ALP level, Rate of change (LSmean) / total bilirubin level, Rate of change (LSmean): unit not given here; conditions: for ALP level, Rate of change (LSmean) / total bilirubin level, Rate of change (LSmean): 12 weeks vs baseline; for ALP level, Rate of change (LSmean): placebo 0.5; for total bilirubin level, Rate of change (LSmean): placebo 6.1
Procedure: Compound. A was administered at a dose of 0.05 to 0.4 mg per day to Compound A group. […] Note that comparisons between the groups were investigated by using covariance analysis with baseline levels used as covariates.

[3] = patients being treated with ursodeoxycholic acid, 12 weeks
[4] = 0.05 to 0.4 mg per day, 12 weeks

SMILES: CC[C@@H](Oc1cccc(CN(CCCOc2ccc(OC)cc2)c2nc3ccccc3o2)c1)C(=O)O [Compound A, (R)-2-[3-[[N-(benzoxazol-2-yl)-N-3-(4-methoxyphenoxy)propyl]aminomethyl]phenoxy] butyric acid]
- total bilirubin level, Rate of change (LSmean) ([1]; Compound A 0.05 to 0.4 mg per day, 12 weeks vs baseline, patients on UDCA, placebo 41.2): −18.5
- ALP level, Rate of change (LSmean) ([1]; Compound A 0.05 to 0.4 mg per day, 12 weeks vs baseline, patients on UDCA, placebo −1.1): −22.6
- total bilirubin level, 12 Weeks ([1]; Compound A 0.05 to 0.4 mg per day, 12 weeks, patients on UDCA, n 13, baseline 0.7): 0.6 mg/dL
- ALP level, 12 Weeks ([1]; Compound A 0.05 to 0.4 mg per day, 12 weeks, patients on UDCA, n 13, baseline 295.5): 229.5 IU/L
- effect on level of ALP [1, 3]: decreases
- effect on level of total bilirubin [1, 3]: decreases
- effect on level of ALP as compared with placebo [2, 4]: decreases dose-dependently
- effect on level of total bilirubin as compared with placebo [2, 4]: decreases dose-dependently
- ALP level, Rate of change (LSmean) ([2]; Compound A 0.05 mg/day): −13.4
- total bilirubin level, Rate of change (LSmean) ([2]; Compound A 0.05 mg/day): −16.4
- total bilirubin level, 12 Weeks ([2]; Compound A 0.05 mg/day, 12 weeks, n 37, baseline 0.8): 0.6 mg/dL
- ALP level, 12 Weeks ([2]; Compound A 0.05 mg/day, 12 weeks, n 37, baseline 234.4): 201.5 IU/L
- ALP level, Rate of change (LSmean) ([2]; Compound A 0.1 mg/day): −22.1
- total bilirubin level, Rate of change (LSmean) ([2]; Compound A 0.1 mg/day): −7.7
- total bilirubin level, 12 Weeks ([2]; Compound A 0.1 mg/day, 12 weeks, n 127, baseline 0.8): 0.7 mg/dL
- ALP level, 12 Weeks ([2]; Compound A 0.1 mg/day, 12 weeks, n 127, baseline 228.4): 177.4 IU/L
- ALP level, Rate of change (LSmean) ([2]; Compound A 0.2 mg/day): −29.4
- total bilirubin level, Rate of change (LSmean) ([2]; Compound A 0.2 mg/day): −11.9
- total bilirubin level, 12 Weeks ([2]; Compound A 0.2 mg/day, 12 weeks, n 846, baseline 0.8): 0.7 mg/dL
- ALP level, 12 Weeks ([2]; Compound A 0.2 mg/day, 12 weeks, n 846, baseline 235.6): 164.7 IU/L
- ALP level, Rate of change (LSmean) ([2]; Compound A 0.4 mg/day): −35.3
- total bilirubin level, Rate of change (LSmean) ([2]; Compound A 0.4 mg/day): −10.4
- total bilirubin level, 12 Weeks ([2]; Compound A 0.4 mg/day, 12 weeks, n 319, baseline 0.8): 0.6 mg/dL
- ALP level, 12 Weeks ([2]; Compound A 0.4 mg/day, 12 weeks, n 319, baseline 225.1): 145.0 IU/L
- effect on level of ALP compared with fenofibrate 200 mg per day ([2]; Compound A at a dose of 0.1 mg or more, 12 weeks): decreases the level of ALP more strongly than the fenofibrate at the maximum clinical dose
